Experiments:
Format in all cases: biochemical
[1] = test system: Amy1=Stainzyme; experiment: amylase storage stability in liquid formulation (pNP release from Ethyliden-blocked-pNPG7); set-up: key: % of activity in reference formulation at time 0; conditions: base formulation I., 1.5 wt % component (a), storage at 37° C.
Outline: (§1)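 Amylase (dosed as active protein) was stored at 37 °C in liquid base formulations with or without test or comparative compounds. Activity at set time points was measured as pNP release (A405) from blocked-pNPG7 with excess α-glucosidase, expressed relative to the reference formulation at time 0.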

[2] = test system: Amy2=Amplify; experiment: as above; set-up: key: % of activity in reference formulation at time 0; conditions: storage at 37° C.
Outline: as §1

[3] = test system: Amy3=Stainzyme Plus L (12L); experiment: as above; conditions: base formulation II., 1.5 wt % component (a), storage at 37° C.
Experimental: The storage stability of amylase was assessed at 37° C.
Base test formulations were manufactured by making base formulations I to V by mixing the components according to Table 1.
Amylases used: Amy1=Stainzyme, Amy2=Amplify, Amy3=Stainzyme Plus L (12L)
The respective component (a) or comparative compound was added, if applicable, to the respective base formulation in amounts as indicated in Table 1.
The amount of amylase as provided in Table 1 refers to active protein.
Water was added to accomplish the balance to 100.
Amylase activity at certain points in time as indicated in Table 2 was measured quantitatively by the release of the chromophore para-nitrophenol (pNP) from the substrate (Ethyliden-blocked-pNPG7, Roche Applied Science 10880078103). The alpha-amylase degrades the substrate into smaller molecules and α-glucosidase (Roche Applied Science 11626329103), which is present in excess compared to the amylase, process these smaller products until pNP is released; the release of pNP, measured via an increase of absorption at 405 nm, is directly proportional to the amylase activity of the sample. Amylase standard: Termamyl 120 L (Sigma 3403).
The amylolytic activity values provided were calculated referring to the value determined in the reference formulation at the time 0.
The nomenclature of formulations is as follows: the Roman number before the full stop characterizes the base formulation, the Arabian number the type of compound (A.# compound according to invention (component (a)); B.# comparative compound).

[4] = target: T1, Savinase Ultra 16.0L (Lederbergia lenta, UniProt P29600); experiment: protease storage stability in liquid formulation (Suc-AAPF-pNA substrate); conditions: storage at 37° C.
T1 construct: purchased Sigma-Aldrich
T1 sequence (P29600 1-269): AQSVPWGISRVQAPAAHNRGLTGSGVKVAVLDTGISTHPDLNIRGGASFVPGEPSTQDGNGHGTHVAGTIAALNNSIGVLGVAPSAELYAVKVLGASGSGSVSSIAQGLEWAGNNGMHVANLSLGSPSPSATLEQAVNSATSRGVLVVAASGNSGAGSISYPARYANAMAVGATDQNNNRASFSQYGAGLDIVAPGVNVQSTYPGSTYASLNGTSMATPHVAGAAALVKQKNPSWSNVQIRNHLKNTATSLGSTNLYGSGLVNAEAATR
Outline: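 Savinase in liquid base formulations containing test salt, comparative compound or diethylene glycol; amounts given as active protein. Residual activity at set storage times measured with Suc-AAPF-pNA via pNA release at OD405, 20 °C. Activity expressed relative to reference formulation at time 0.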

[5] = base formulation III., 1.5 wt % component (a), 3 d
[6] = base formulation III., 1.5 wt % component (a), 7 d
[7] = base formulation III., 1.5 wt % component (a), 14 d
[8] = base formulation III., 1.5 wt % component (a), 21 d
[9] = base formulation III., 1.5 wt % component (a), 28 d
[10] = base formulation III., 1.5 wt % component (a), 42 d
[11] = base formulation III., 1.5 wt % component (a), T0
[12] = base formulation V., 2.0 wt % component (a), 3 d
[13] = base formulation V., 2.0 wt % component (a), 7 d
[14] = base formulation V., 2.0 wt % component (a), 14 d
[15] = base formulation V., 2.0 wt % component (a), 21 d
[16] = base formulation V., 2.0 wt % component (a), 28 d
[17] = base formulation V., 2.0 wt % component (a), 42 d
[18] = base formulation V., 2.0 wt % component (a), T0

CCCOC(=O)CC(O)(CC(=O)OCCC)C(=O)OCCC [A.2, Tripropylcitrate]
amylase activity, referring to reference formulation at time 0 ([1]; 3 d): 100 | amylase activity, referring to reference formulation at time 0 ([1]; 7 d): 96 | amylase activity, referring to reference formulation at time 0 ([1]; 14 d): 90 | amylase activity, referring to reference formulation at time 0 ([1]; 21 d): 84 | amylase activity, referring to reference formulation at time 0 ([1]; 28 d): 79 | amylase activity, referring to reference formulation at time 0 ([1]; 42 d): 66 | amylase activity, referring to reference formulation at time 0 ([1]; T0): 101 | amylase activity, referring to reference formulation at time 0 [2, 5]: 102 | amylase activity, referring to reference formulation at time 0 [2, 6]: 97 | amylase activity, referring to reference formulation at time 0 [2, 7]: 93 | amylase activity, referring to reference formulation at time 0 [2, 8]: 87 | amylase activity, referring to reference formulation at time 0 [2, 9]: 81 | amylase activity, referring to reference formulation at time 0 [2, 10]: 71 | amylase activity, referring to reference formulation at time 0 [2, 11]: 100 | amylase activity, referring to reference formulation at time 0 [2, 12]: 95 | amylase activity, referring to reference formulation at time 0 [2, 13]: 90 | amylase activity, referring to reference formulation at time 0 [2, 14]: 84 | amylase activity, referring to reference formulation at time 0 [2, 15]: 76 | amylase activity, referring to reference formulation at time 0 [2, 16]: 66 | amylase activity, referring to reference formulation at time 0 [2, 17]: 54 | amylase activity, referring to reference formulation at time 0 [2, 18]: 98 | amylase activity, referring to reference formulation at time 0 ([3]; 3 d): 100 | amylase activity, referring to reference formulation at time 0 ([3]; 7 d): 97 | amylase activity, referring to reference formulation at time 0 ([3]; 14 d): 93 | amylase activity, referring to reference formulation at time 0 ([3]; 21 d): 87 | amylase activity, referring to reference formulation at time 0 ([3]; 28 d): 83 | amylase activity, referring to reference formulation at time 0 ([3]; 42 d): 69 | amylase activity, referring to reference formulation at time 0 ([3]; T0): 102 | protease activity, referring to reference formulation at time 0 ([4]; base formulation I., 1.5 wt % component (a), 3 d): 100 | protease activity, referring to reference formulation at time 0 ([4]; base formulation I., 1.5 wt % component (a), 7 d): 95 | protease activity, referring to reference formulation at time 0 ([4]; base formulation I., 1.5 wt % component (a), 14 d): 90 | protease activity, referring to reference formulation at time 0 ([4]; base formulation I., 1.5 wt % component (a), 21 d): 85 | protease activity, referring to reference formulation at time 0 ([4]; base formulation I., 1.5 wt % component (a), 28 d): 81 | protease activity, referring to reference formulation at time 0 ([4]; base formulation I., 1.5 wt % component (a), 42 d): 71 | protease activity, referring to reference formulation at time 0 ([4]; base formulation I., 1.5 wt % component (a), T0): 101 | protease activity, referring to reference formulation at time 0 ([4]; base formulation II., 1.5 wt % component (a), 3 d): 100 | protease activity, referring to reference formulation at time 0 ([4]; base formulation II., 1.5 wt % component (a), 7 d): 96 | protease activity, referring to reference formulation at time 0 ([4]; base formulation II., 1.5 wt % component (a), 14 d): 91 | protease activity, referring to reference formulation at time 0 ([4]; base formulation II., 1.5 wt % component (a), 21 d): 87 | protease activity, referring to reference formulation at time 0 ([4]; base formulation II., 1.5 wt % component (a), 28 d): 83 | protease activity, referring to reference formulation at time 0 ([4]; base formulation II., 1.5 wt % component (a), 42 d): 72 | protease activity, referring to reference formulation at time 0 ([4]; base formulation II., 1.5 wt % component (a), T0): 101 | protease activity, referring to reference formulation at time 0 [4, 5]: 100 | protease activity, referring to reference formulation at time 0 [4, 6]: 95 | protease activity, referring to reference formulation at time 0 [4, 7]: 93 | protease activity, referring to reference formulation at time 0 [4, 8]: 88 | protease activity, referring to reference formulation at time 0 [4, 9]: 83 | protease activity, referring to reference formulation at time 0 [4, 10]: 73 | protease activity, referring to reference formulation at time 0 [4, 11]: 101 | protease activity, referring to reference formulation at time 0 [4, 12]: 95 | protease activity, referring to reference formulation at time 0 [4, 13]: 92 | protease activity, referring to reference formulation at time 0 [4, 14]: 87 | protease activity, referring to reference formulation at time 0 [4, 15]: 82 | protease activity, referring to reference formulation at time 0 [4, 16]: 77 | protease activity, referring to reference formulation at time 0 [4, 17]: 70 | protease activity, referring to reference formulation at time 0 [4, 18]: 100

Reference: patent US20220112479A1, “COMPOUNDS STABILIZING AMYLASES IN LIQUIDS” (BASF SE, priority 2018, published 2022)
